Source: US20240199548A1, “NOVEL COMPOUNDS USEFUL AS STING AGONISTS AND USES THEREOF” (Jacobio Pharmaceuticals Co., Ltd., priority 2021, published 2024)

Biological target: human STING WT protein (Homo sapiens, UniProt Q86WV6)
Assay: Human STING WT binding assay (Cisbio HTRF)
Details: HTRF competition with STING WT ligand d2, 6 His-tagged human STING WT, 3 hours at RT; read-out: hSTING WT binding IC50
Description: Example A: Human STING WT Binding Assay
Cisbio Bioassays' human STING WT binding assay (#64 BDSTGPEG & 64 BDSTGPEH, Cisbio) is for quantitative measurement of human STING WT ligand using HTRF® technology.
Negative control: Dispense 5 μL of diluent into each negative control well. Standard: Dispense 5 μL of each Human STING WT Standard 2′3′-cGAMP (Std 0-Std 7) into each standard well. Compound: Dispense 5 μL of compound into each compound well.
Negative control: Add 5 μL of detection buffer to all wells. Other wells: Add 5 μL of human STING WT protein 6 His-tagged protein to all wells.
Add 10 μL of premixed STING WT ligand d2 reagent and 6 His Tb antibody working solution to all wells.
Seal the plate and incubate 3 hours at RT or at Over Night if necessary.
Remove the plate sealer and read on an HTRF® compatible reader (PerkinElmer, USA). Results were analyzed with a two-wavelength signal ratio:intensity (665 nm)/intensity (620 nm).
Fit the data in GraphPad to obtain IC50 values using equation (2)
Y=Bottom+(Top−Bottom)/(1+10^((Log IC50−X)*Hill Slope)) Equation (2)
Y is HTRF Ratio and X is compound concentration.

Chain of human STING WT protein (Q86WV6 whole entry H232R): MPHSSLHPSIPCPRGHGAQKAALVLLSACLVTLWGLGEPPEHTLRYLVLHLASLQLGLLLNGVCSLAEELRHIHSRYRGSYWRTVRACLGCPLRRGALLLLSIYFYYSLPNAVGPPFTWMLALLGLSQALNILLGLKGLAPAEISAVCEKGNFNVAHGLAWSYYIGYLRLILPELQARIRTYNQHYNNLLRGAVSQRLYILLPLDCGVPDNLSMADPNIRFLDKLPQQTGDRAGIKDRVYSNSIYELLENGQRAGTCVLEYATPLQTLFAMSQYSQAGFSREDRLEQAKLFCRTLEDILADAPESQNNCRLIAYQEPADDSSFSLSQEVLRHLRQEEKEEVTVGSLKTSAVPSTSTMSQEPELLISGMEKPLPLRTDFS

| Compound | IC50 |
| --- | --- |
| COc1cc2c(cc1OCCCOc1cc3c(cc1OC)CN(C(=O)NCCC(=O)O)C3)CN(C(=O)CCC(=O)O)C2 [Example 14, 4-(5-(3-((2-((2-carboxyethyl)carbamoyl)-6-methoxyisoindolin-5-yl)oxy)propoxy)-6-methoxyisoindolin-2-yl)-4-oxobutanoic acid] | 144 nM |
| COc1cc2c(nc1OCCCOc1nc3c(cc1OC)CN(C(=O)CCC(=O)O)C3)CN(C(=O)CCC(=O)O)C2 [Example 5, 4,4′-((propane-1,3-diylbis(oxy))bis(3-methoxy-5,7-dihydro-6H-pyrrolo[3,4-b]pyridine-2,6-diyl))bis(4-oxobutanoic Acid)] | 3.28 nM |
| COc1cc2c(c(F)c1OCCCOc1c(OC)cc3c(c1F)CN(C(=O)CCC(=O)O)C3)CN(C(=O)CCC(=O)O)C2 [Example 9, 4,4′-((propane-1,3-diylbis(oxy))bis(4-fluoro-6-methoxyisoindoline-5,2-diyl))bis(4-oxobutanoic acid)] | 0.32 nM |
| COc1cc2c(c(F)c1OCCCOc1c(OC)cc3c(c1Cl)CN(C(=O)CCC(=O)O)C3)CN(C(=O)CCC(=O)O)C2 [Example 13, 4-(5-(3-((2-(3-carboxypropanoyl)-4-chloro-6-methoxyisoindolin-5-yl)oxy)propoxy)-4-fluoro-6-methoxyisoindolin-2-yl)-4-oxobutanoic acid] | 149 nM |
| COc1cc2c(cc1OCCCOc1c(OC)cc3c(c1F)CN(C(=O)CCC(=O)O)C3)CN(C(=O)CCC(=O)O)C2 [Example 4, 4-(5-(3-((2-(3-carboxypropanoyl)-4-fluoro-6-methoxyisoindolin-5-yl)oxy)propoxy)-6-methoxyisoindolin-2-yl)-4-oxobutanoic Acid] | 0.68 nM |
| COc1cc2c(cc1OCCCOc1cc3c(cc1OC)CN(C(=O)CCC(=O)O)C3)CN(C(=O)CCC(=O)O)C2 [Example 1, 4,4′-((propane-1,3-diylbis(oxy))bis(6-methoxyisoindoline-5,2-diyl))bis(4-oxobutanoic Acid)] | < 0.1 nM |
| COc1cc2c(cc1OCCCOc1cc3c(cc1OC)CN(C(=O)C[C@H](C)C(=O)O)C3)CN(C(=O)CCC(=O)O)C2 [Example 3, Sodium (S)-4-(5-(3-((2-(3-carboxylatopropanoyl)-6-methoxyisoindolin-5-yl)oxy)propoxy)-6-methoxyisoindolin-2-yl)-2-methyl-4-oxobutanoate] | 1.63 nM |
| C=C(COc1cc2c(cc1OC)CN(C(=O)CCC(=O)O)C2)COc1cc2c(cc1OC)CN(C(=O)CCC(=O)O)C2 [Example 10, 4,4′-(((2-methylenepropane-1,3-diyl)bis(oxy))bis(6-methoxyisoindoline-5,2-diyl))bis(4-oxobutanoic acid)] | 150 nM |
| COc1cc2c(cc1OCCCOc1cc3c(c(F)c1OC)CN(C(=O)CCC(=O)O)C3)CN(C(=O)CCC(=O)O)C2 [Example 2, 4-(6-(3-((2-(3-carboxypropanoyl)-6-methoxyisoindolin-5-yl)oxy)propoxy)-4-fluoro-5-methoxyisoindolin-2-yl)-4-oxobutanoic Acid] | 33.7 nM |
